Results from ChEMBL document CHEMBL5620415, “Design, synthesis and anti-hepatic fibrosis activity of novel diphenyl vitamin D receptor agonists” (Eur J Med Chem, 2023).

Columns and labels:
[1] = target: T1, Vitamin D3 receptor (Homo sapiens) (UniProt P11473); test: Binding affinity to human full-length Vitamin D receptor assessed as relative binding affinity at 1 uM incubated for 2 hrs by fluorescence polarization based competitive binding assay relative to calcipotriol
T1 sequence (whole entry): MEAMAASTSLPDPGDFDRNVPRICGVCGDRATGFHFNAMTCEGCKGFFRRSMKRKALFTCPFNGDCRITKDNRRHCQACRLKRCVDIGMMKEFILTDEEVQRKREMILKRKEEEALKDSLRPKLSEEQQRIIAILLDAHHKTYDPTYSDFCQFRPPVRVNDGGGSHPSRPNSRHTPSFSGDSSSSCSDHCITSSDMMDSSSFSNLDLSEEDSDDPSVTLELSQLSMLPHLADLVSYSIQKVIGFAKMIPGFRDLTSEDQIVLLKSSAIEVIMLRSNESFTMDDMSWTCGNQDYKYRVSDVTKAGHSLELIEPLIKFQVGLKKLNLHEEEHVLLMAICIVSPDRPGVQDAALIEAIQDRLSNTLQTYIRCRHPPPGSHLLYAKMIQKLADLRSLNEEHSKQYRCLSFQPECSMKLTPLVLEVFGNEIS

[2] = Cytotoxicity against human LX-2 cells by CCK-8 assay; format: toxicity, cell-based

| RBA [1] [%] | RBA ([1]; filed as agonist) [%] | Compound | IC50 [2] [µM] |
| --- | --- | --- | --- |
| 36.4 |  | OCCCCCOc1ccc(/C=C/c2ccc(CO)c(CO)c2)cc1 | > 30 |
| 9.25 |  | OCCCCCCOc1cccc(COc2ccc(CO)c(CO)c2)c1 | > 30 |
|  | 49.7 | CCN(CC)CCCOc1cccc(COc2ccc(CO)c(CO)c2)c1 | > 30 |
|  | 44.5 | CC(C)(O)CCCOc1cccc(/C=C/c2ccc(CO)c(CO)c2)c1 | > 30 |
|  | 40.5 | C=CCC(O)(CC=C)CCCOc1cccc(/C=C/c2ccc(CO)c(CO)c2)c1 | > 30 |
|  | 46.2 | CCCC(Oc1ccc(CO)c(CO)c1)c1cccc(OCCCC(O)(CC)CC)c1 (configuration not stated) | > 30 |
| 9.25 |  | CC(C)(O)CCCCOc1cccc(COc2ccc(CO)c(CO)c2)c1 | > 30 |
| 23.1 |  | CCC(O)(CC)CCCCOc1cccc(/C=C/c2ccc(CO)c(CO)c2)c1 | > 30 |
| 38.1 |  | CCC(O)(CC)CCOc1cccc(/C=C/c2ccc(CO)c(CO)c2)c1 | > 30 |
| 5.78 |  | OCCCCCOc1cccc(/C=C/c2ccc(CO)c(CO)c2)c1 | > 30 |
| 29.5 |  | COC(=O)CCCCCOc1cccc(COc2ccc(CO)c(CO)c2)c1 | > 30 |
|  | 49.7 | CCN(CC)CCCOc1ccc(/C=C/c2ccc(CO)c(CO)c2)cc1 | > 30 |
| 35.8 |  | CCC(O)(CC)CCCCOc1cccc(COc2ccc(CO)c(CO)c2)c1 | > 30 |
|  | 41.6 | OCCCCOc1cccc(COc2ccc(CO)c(CO)c2)c1 | > 30 |
| 37 |  | O=C(O)CCCOc1cccc(/C=C/c2ccc(CO)c(CO)c2)c1 | > 30 |
| 24.9 |  | O=C(CCCOc1cccc(COc2ccc(CO)c(CO)c2)c1)N1CCCCC1 | > 30 |

Continued, compound first:

| Compound | RBA [1] [%] | RBA ([1]; filed as agonist) [%] | IC50 [2] [µM] |
| --- | --- | --- | --- |
| OCc1ccc(/C=C/c2ccc(OCCCN3CCOCC3)cc2)cc1CO | 32.4 |  | > 30 |
| CCCCC(Oc1ccc(CO)c(CO)c1)c1cccc(OCCCC(O)(CC)CC)c1 (configuration not stated) |  | 42.2 | > 30 |
| CCN(CC)C(=O)CCCOc1cccc(COc2ccc(CO)c(CO)c2)c1 | 8.67 |  | > 30 |
| CCC(O)(CC)CCCCCOc1cccc(/C=C/c2ccc(CO)c(CO)c2)c1 | 33.5 |  | > 30 |
| OCCCCOc1cccc(/C=C/c2ccc(CO)c(CO)c2)c1 | 11.6 |  | > 30 |
| O=C(O)CCCOc1cccc(COc2ccc(CO)c(CO)c2)c1 | 9.25 |  | > 30 |
| CCC(O)(CC)CCCCCOc1cccc(COc2ccc(CO)c(CO)c2)c1 | 3.47 |  | > 30 |
| CCC(O)(CC)CCCOc1cccc(C(Oc2ccc(CO)c(CO)c2)C(C)C)c1 (configuration not stated) | 36.4 |  | > 30 |
| CC(C)(O)CCCCCOc1cccc(COc2ccc(CO)c(CO)c2)c1 | 27.2 |  | > 30 |
| CC(O)CCCOc1cccc(/C=C/c2ccc(CO)c(CO)c2)c1 (configuration not stated) | 8.67 |  | > 30 |
| OCCCCCOc1cccc(COc2ccc(CO)c(CO)c2)c1 | 9.83 |  | > 30 |
| COC(=O)CCCOc1cccc(COc2ccc(CO)c(CO)c2)c1 | 19.6 |  | > 30 |
| OCc1ccc(/C=C/c2cccc(OCCCN3CCOCC3)c2)cc1CO | 34.1 |  | > 30 |
| CCC(O)(CC)CCCCOc1ccc(/C=C/c2ccc(CO)c(CO)c2)cc1 | 31.2 |  | > 30 |
| CN1CCN(C(=O)CCCOc2cccc(COc3ccc(CO)c(CO)c3)c2)CC1 | 30.1 |  | > 30 |
| CC(C)(O)CCCOc1cccc(COc2ccc(CO)c(CO)c2)c1 | 27.2 |  | > 30 |
| COC(=O)CCCCOc1cccc(COc2ccc(CO)c(CO)c2)c1 |  | 45.7 | > 30 |
| COC(=O)CCCOc1cccc(/C=C/c2ccc(CO)c(CO)c2)c1 | 34.1 |  | > 30 |
| C=CCC(O)(CC=C)CCCOc1cccc(COc2ccc(CO)c(CO)c2)c1 | 20.2 |  | > 30 |
| O=C(CCCOc1cccc(COc2ccc(CO)c(CO)c2)c1)N1CCOCC1 | 17.9 |  | > 30 |
